From patent EP4741395A1, “NOVEL COMPOUND SENSITIVE TO NITROGEN MONOXIDE AND PHARMACEUTICAL COMPOSITION COMPRISING SAME” (Omniamed Co. Ltd, priority 2023, dated 2025)

Key:
IFN-γ = IFN-γ reduction activity in Concanavalin A-treated splenocytes (quantitative ELISA); type: cell-based, C57BL/6 mouse; conditions: Mus musculus, Splenocyte, Concanavalin A 5 µg/mL, 72 hours, read-out: IFN-γ Reduction Activity (%) (Mean±SD)
Description: (§1) A spleen was isolated from an 8-week-old C57BL/6 mouse, and splenocytes were isolated using a physical method.
(§2) The separated splenocytes were diluted to a concentration of 5×10^6 cells/mL in a RPMI 1640 medium including 10% FBS, 100 U/mL of penicillin and 100 µg/mL of streptomycin, and the diluted splenocytes were dispensed at 500 µL/well into a 48-well plate and 100 µL/well into a 96-well plate, and cultured for 72 hours in an incubator. The splenocytes were treated with Concanavalin A (5 µg/mL) when dispensed to induce an immune response, and herein, […] of the pharmaceutical composition including the compound according to each of the Examples was also added thereto. After 72 hours, the supernatant was collected, and the level of remaining NO was checked through a Griess assay, and calculated by the following Equation 4.
NO is one of important inflammatory mediators, and may increase the level of inflammatory cytokine. Concanavalin A (5 µg/mL), which induces an immune response in splenocytes, and the compound of each of Examples were treated in a concentration-dependent manner to check whether the level of IFN-γ, a representative inflammatory cytokine, was reduced. The supernatant was collected 72 hours after the treatment, and analyzed using a quantitative enzyme-linked immunosorbent assay (Quantitative-ELISA).

splenocytes [1] = test: Inhibitory activity on cell proliferation in splenocytes (CCK-8 analysis); type: cell-based, C57BL/6 mouse; conditions: Mus musculus, Splenocyte, Concanavalin A 5 µg/mL, 72 hours, read-out: Inhibitory Activity on Cell Proliferation (%) (Mean±SD)
Raw 264.7 cell line = test: NO scavenging activity in LPS-treated immune cells (Griess reagent); type: cell-based; conditions: Mus musculus, RAW264.7, Raw 264.7, LPS 500 ng/mL, 24 hours, read-out: NO Scavenging Activity (%) (Mean±SD)
Description: Raw 264.7 cell line was seeded in a 48-well plate at a density of 8×10^4 cells/well, and cultured at 37°C in a DMEM medium including 10% FBS, 100 U/mL of penicillin and 100 µg/mL of streptomycin.
The medium was cultured overnight, and then replaced with a fresh medium including 10 µM of the pharmaceutical composition sensitive to nitrogen monoxide including the compound of each of Examples 1 to 30 and 500 ng/mL of LPS, and the fresh medium was cultured again for another 24 hours.
Lastly, in order to measure the amount of NO produced, the amount of NO2^- present in the cell culture medium was measured using a Griess reagent (sulfanilamide, N-1-naphthylethylenediamine dihydrochloride). Specifically, 100 µL of a Griess reagent was mixed with a mixture solution of 50 µL of the cell culture medium and 50 µL of PBS. The mixture solution was reacted for 10 minutes in a well plate, and absorbance thereof at 540 nm was measured.

splenocytes [2] = test: NO scavenging activity in Concanavalin A-treated splenocytes (Griess assay); type: cell-based, C57BL/6 mouse; conditions: Mus musculus, Splenocyte, Concanavalin A 5 µg/mL, 72 hours, read-out: NO Scavenging Activity (%) (Mean±SD)
Description: as §1, §2

JAK 1 = JAK 1 (Homo sapiens, UniProt P23458); test: JAK Human TK kinase enzymatic radiometric assay (Eurofins), JAK 1; conditions: value close to 100 indicates low JAK activity of the compound
JAK 1, sequence (P23458 whole entry): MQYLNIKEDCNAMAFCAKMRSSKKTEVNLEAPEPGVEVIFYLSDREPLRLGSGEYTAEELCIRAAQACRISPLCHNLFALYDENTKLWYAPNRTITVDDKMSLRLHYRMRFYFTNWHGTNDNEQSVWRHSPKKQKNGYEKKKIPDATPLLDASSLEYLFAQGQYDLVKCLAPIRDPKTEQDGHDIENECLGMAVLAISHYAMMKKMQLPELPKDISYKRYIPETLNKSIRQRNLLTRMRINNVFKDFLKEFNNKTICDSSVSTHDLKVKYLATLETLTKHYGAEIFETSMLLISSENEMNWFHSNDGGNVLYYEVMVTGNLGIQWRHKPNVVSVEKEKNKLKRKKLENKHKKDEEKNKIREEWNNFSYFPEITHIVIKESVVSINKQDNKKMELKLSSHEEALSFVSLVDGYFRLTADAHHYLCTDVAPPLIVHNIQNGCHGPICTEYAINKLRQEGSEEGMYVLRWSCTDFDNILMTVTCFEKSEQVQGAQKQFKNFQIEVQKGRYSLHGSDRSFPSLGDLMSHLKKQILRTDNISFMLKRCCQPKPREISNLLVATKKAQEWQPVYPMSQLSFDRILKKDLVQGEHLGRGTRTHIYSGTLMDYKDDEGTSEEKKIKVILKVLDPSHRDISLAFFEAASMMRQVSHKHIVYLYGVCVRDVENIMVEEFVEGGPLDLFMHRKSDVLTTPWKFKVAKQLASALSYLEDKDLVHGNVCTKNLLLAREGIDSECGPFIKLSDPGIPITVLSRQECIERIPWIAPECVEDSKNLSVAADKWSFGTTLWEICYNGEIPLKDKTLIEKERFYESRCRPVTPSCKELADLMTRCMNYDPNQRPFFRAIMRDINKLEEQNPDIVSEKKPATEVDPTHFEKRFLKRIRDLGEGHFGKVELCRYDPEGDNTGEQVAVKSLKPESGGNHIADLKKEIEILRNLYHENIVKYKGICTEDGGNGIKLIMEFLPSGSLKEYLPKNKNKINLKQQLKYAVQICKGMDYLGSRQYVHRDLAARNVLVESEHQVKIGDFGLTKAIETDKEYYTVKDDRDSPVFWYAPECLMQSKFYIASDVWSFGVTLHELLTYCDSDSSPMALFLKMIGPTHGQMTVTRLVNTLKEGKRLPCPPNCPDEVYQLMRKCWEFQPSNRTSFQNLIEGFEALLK
Description: For the compounds of the Examples, JAK activity of each of the compounds was verified using the JAK Human TK Kinase Enzymatic Radiometric Kinase Profiler Assay service provided by Eurofins Scientific.
The activity was verified after inducing a reaction at the JAK 1, 2 and 3 active sites using radioactively labeled ATP.

[3] = DAF-2 assay of NO scavenging activity (NO donor SNAP); type: biochemical; conditions: DAF-2 10 µM, SNAP 100 µM, PBS, 3 hours, 37°C
Description: NO scavenging activity of the pharmaceutical composition sensitive to nitrogen monoxide including the compound according to each of Examples 1 to 22, 29 to 31, and 33 to 35 was evaluated through a DAF-2 assay.
Specifically, a reagent stock solution was made using DMSO (dimethyl sulfoxide) in order to prepare 5 mM of DAF-2, 100 mM of SNAP and 5 mM of the compound synthesized in each of the Examples, and for the reaction, the solution was added to a PBS (phosphate buffered saline) solution so that DAF-2, SNAP and the compound had final concentrations of 10 µM, 100 µM and the concentration of Table 1, respectively, followed by a reaction for 3 hours in a 37°C incubator.

[4] = DAF-2 assay of NO scavenging activity without and with H2O2 (ROS); type: biochemical; conditions: SNAP 100 µM, DAF-2 10 µM, 3 hours, 37°C; for NO Scavenging Activity (%) (Mean±SD) With H2O2: H2O2 1 mM
Description: The pharmaceutical composition sensitive to nitrogen monoxide including the compound according to each of Examples 23 to 28 and 32 may have scavenging activity for reactive oxygen species (ROS). NO scavenging activity of the pharmaceutical composition was evaluated through a DAF-2 assay.
Specifically, to a 100 µM solution of SNAP, the compound synthesized in each of the Examples was added at a concentration of the following Table 2, and reacted. Then 10 µM of DAF-2 was added thereto, followed by a reaction for 3 hours in a 37°C incubator.
Additionally, a stock solution of H2O2 (10 M) was added to the reaction solution so that SNAP and H2O2 had final concentrations of 100 µM and 1 mM, respectively. Then, the compound synthesized in each of the Examples was added thereto at a concentration of the following Table 11, followed by a reaction in the same manner, and NO scavenging activity was calculated by Equation 1.

| JAK 1 Activity (JAK 1; 0.1 nM) | JAK 1 Activity (JAK 1; 1 nM) | JAK 1 Activity (JAK 1; 10 nM) | JAK 1 Activity (JAK 1; 100 nM) | Structure (SMILES) | activity at 10 µM (IFN-γ) [%] | inhibition at 10 µM (splenocytes [1]) [%] | activity at 10 µM (Raw 264.7 cell line) [%] | activity at 10 µM (splenocytes [2]) [%] | NO Scavenging Activity (%) (Mean±SD) ([3]; compound 1 µM) | NO Scavenging Activity (%) (Mean±SD) ([3]; compound 5 µM) | NO Scavenging Activity (%) (Mean±SD) ([3]; compound 10 µM) | NO Scavenging Activity (%) (Mean±SD) Without H2O2 ([4]; compound 1 µM) | NO Scavenging Activity (%) (Mean±SD) With H2O2 ([4]; compound 1 µM) | NO Scavenging Activity (%) (Mean±SD) Without H2O2 ([4]; compound 5 µM) | NO Scavenging Activity (%) (Mean±SD) With H2O2 ([4]; compound 5 µM) | NO Scavenging Activity (%) (Mean±SD) Without H2O2 ([4]; compound 10 µM) | NO Scavenging Activity (%) (Mean±SD) With H2O2 ([4]; compound 10 µM) |
| --- | --- | --- | --- | --- | --- | --- | --- | --- | --- | --- | --- | --- | --- | --- | --- | --- | --- |
| – | – | – | – | Cc1ccc(N)c(NC(=O)n2ccc3c(N(C)[C@H]4CN(C(=O)CC#N)CC[C@H]4C)ncnc32)c1 [Example 2, N-(2-amino-5-methylphenyl)-4-(((3R,4R)-1-(2-cyanoacetyl)-4-methylpiperidin-3-yl)(methyl)amino)-7H-pyrrolo[2,3-d]pyrimidine-7-carboxamide] | 95.2 ± 0.39 | 90.4 ± 4.69 | 78.1 ± 0.21 | 94.3 ± 0.27 | – | – | – | – | – | – | – | – | – |
| – | – | – | – | Cc1ccc(NC(=O)n2ccc3c(N(C)[C@H]4CN(C(=O)CC#N)CC[C@H]4C)ncnc32)c(N)c1 [Example 3, N-(2-amino-4-methylphenyl)-4-(((3R,4R)-1-(2-cyanoacetyl)-4-methylpiperidin-3-yl)(methyl)amino)-7H-pyrrolo[2,3-d]pyrimidine-7-carboxamide] | 99.1 ± 0.61 | 76.2 ± 2.45 | 95.4 ± 0.11 | 98.1 ± 0.34 | – | – | – | – | – | – | – | – | – |
| – | – | – | – | C[C@@H]1CCN(C(=O)CC#N)C[C@@H]1N(C)c1ncnc2c1ccn2C(=O)Nc1cc(N(C)C)ccc1N [Example 5, N-(2-amino-5-(dimethylamino)phenyl)-4-(((3R,4R)-1-(2-cyanoacetyl)-4-methylpiperidin-3-yl)(methyl)amino)-7H-pyrrolo[2,3-d]pyrimidine-7-carboxamide] | 96.1 ± 0.45 | 60.5 ± 5.48 | 84.1 ± 0.01 | 94.1 ± 0.52 | – | – | – | – | – | – | – | – | – |
| – | – | – | – | C[C@@H]1CCN(C(=O)CC#N)C[C@@H]1N(C)c1ncnc2c1ccn2C(=O)Nc1cc2c(cc1N)n(C)c(=O)n2C [Example 10, N-(6-amino-1,3-dimethyl-2-oxo-2,3-dihydro-1H-benzo[d]imidazol-5-yl)-4-(((3R,4R)-1-(2-cyanoacetyl)-4-methylpiperidin-3-yl)(methyl)amino)-7H-pyrrolo[2,3-d]pyrimidine-7-carboxamide] | 93 ± 2.99 | 76.3 ± 2.45 | 93.7 ± 0.11 | 77 ± 0.87 | – | – | – | – | – | – | – | – | – |
| 102 | 90 | 99 | 66 | Cc1ccc(NC(=O)N(C)CCN(C)C(=O)n2ccc3c(N(C)[C@H]4CN(C(=O)CC#N)CC[C@H]4C)ncnc32)c(N)c1 [Example 15, N-(2-(3-(2-amino-4-methylphenyl)-1-methylureido)ethyl)-4-(((3R,4R)-1-(2-cyanoacetyl)-4-methylpiperidin-3-yl) (methyl)amino)-N-methyl-7H-pyrrolo[2,3-d]pyrimidine-7-carboxamide] | 86.5 ± 0.29 | 22.6 ± 6.36 | 54 ± 0.59 | 31.6 ± 0.16 | – | – | – | – | – | – | – | – | – |
| 101 | 104 | 98 | 59 | Cc1ccc(N)c(NC(=O)N(C)CCN(C)C(=O)n2ccc3c(N(C)[C@H]4CN(C(=O)CC#N)CC[C@H]4C)ncnc32)c1 [Example 16, N-(2-(3-(2-amino-5-methylphenyl)-1-methylureido)ethyl)-4-(((3R,4R)-1-(2-cyanoacetyl)-4-methylpiperidin-3-yl) (methyl)amino)-N-methyl-7H-pyrrolo[2,3-d]pyrimidine-7-carboxamide] | 81.4 ± 0.5 | 25 ± 5.67 | 49.3 ± 0.23 | 27.1 ± 1.2 | – | – | – | – | – | – | – | – | – |
| 91 | 97 | 84 | 77 | C[C@@H]1CCN(C(=O)CC#N)C[C@@H]1N(C)c1ncnc2c1ccn2C(=O)N(C)CCN(C)C(=O)Nc1cc2c(cc1N)n(C)c(=O)n2C [Example 22, N-(2-(3-(6-amino-1,3-dimethyl-2-oxo-2,3-dihydro-1H-benzo[d]imidazol-5-yl)-1-methylureido)ethyl)-4-(((3R,4R)-1-(2-cyanoacetyl)-4-methylpiperidin-3-yl) (methyl)amino)-N-methyl-7H-pyrrolo[2,3-d]pyrimidine-7-carboxamide] | – | 19.4 ± 0.21 | 31.3 ± 0.88 | 45.9 ± 0.51 | 14.83 ±6.51 | 36.86 ±2.09 | 48.96 ±3.12 | – | – | – | – | – | – |
| – | – | – | – | C[C@@H]1CCN(C(=O)CC#N)C[C@@H]1N(C)c1ncnc2c1ccn2C(=O)N(C)CCN(C)C(=O)Nc1cc2c(cc1NC(=O)OCc1ccc(B(O)O)cc1)n(C)c(=O)n2C [Example 24, (4-((((6-(3-(2-(4-(((3R,4R)-1-(2-cyanoacetyl)-4-methylpiperidin-3-yl)(methyl)amino)-N-methyl-7H-pyrrolo[2,3-d]pyrimidine-7-carboxamido)ethyl)-3-methylureido)-1,3-dimethyl-2-oxo-2,3-dihydro-1H-benzo[d]imidazol-5-yl)carbamoyl)oxy)methyl)phenyl)boronic acid] | 95.5 ± 0.15 | 67.2 ± 4.67 | 9.8 ± 0.64 | 78.3 ± 0.5 | – | – | – | 16.43 ±4.86 | 34.66 ±3.80 | 27.84 ±7.68 | 43.58 ±6.00 | 40.54 ±3.96 | 53.52 ±3.09 |
| – | – | – | – | C[C@@H]1CCN(C(=O)CC#N)C[C@@H]1N(C)c1ncnc2c1ccn2C(=O)Nc1ccccc1NC(=O)OCc1ccc(B2OC(C)(C)C(C)(C)O2)cc1 [Example 25, 4-(4,4,5,5-tetramethyl-1,3,2-dioxaborolan-2-yl)benzyl (2-(4-(((3R,4R)-1-(2-cyanoacetyl)-4-methylpiperidin-3-yl) (methyl)amino)-7H-pyrrolo[2,3-d]pyrimidine-7-carboxamido)phenyl) carbamate] | 98.7 ± 0.04 | 81.4 ± 7.94 | 63.2 ± 0.56 | 100 | – | – | – | – | – | – | – | 42.36 ±1.91 | 89.96 ±0.19 |
